The values that follow come from PMC6226181 (PLoS ONE, 2018).

Data set [1] deals with T1, anthrax lethal factor (Bacillus anthracis, UniProt P15917). The following applies: cited from earlier work.
The target in data set [2] is T1, anthrax lethal factor. It counts as biochemical. The following applies: 5 hours at 37°C.
Data set [3] has as its target T1, anthrax lethal factor. It counts as biochemical. Particulars: 5 hours at 37°C. This is another data set of the same source.

Non-standard residues stand in square brackets, D forms with d. Residues, ends and D or L forms follow the SMILES beside them. *: point of attachment. AFC = O=c1cc(C(F)(F)F)c2ccc(N*)cc2o1; AMC = Cc1cc(=O)oc2cc(N*)ccc12

T1 sequence (P15917 34-809 limits assumed): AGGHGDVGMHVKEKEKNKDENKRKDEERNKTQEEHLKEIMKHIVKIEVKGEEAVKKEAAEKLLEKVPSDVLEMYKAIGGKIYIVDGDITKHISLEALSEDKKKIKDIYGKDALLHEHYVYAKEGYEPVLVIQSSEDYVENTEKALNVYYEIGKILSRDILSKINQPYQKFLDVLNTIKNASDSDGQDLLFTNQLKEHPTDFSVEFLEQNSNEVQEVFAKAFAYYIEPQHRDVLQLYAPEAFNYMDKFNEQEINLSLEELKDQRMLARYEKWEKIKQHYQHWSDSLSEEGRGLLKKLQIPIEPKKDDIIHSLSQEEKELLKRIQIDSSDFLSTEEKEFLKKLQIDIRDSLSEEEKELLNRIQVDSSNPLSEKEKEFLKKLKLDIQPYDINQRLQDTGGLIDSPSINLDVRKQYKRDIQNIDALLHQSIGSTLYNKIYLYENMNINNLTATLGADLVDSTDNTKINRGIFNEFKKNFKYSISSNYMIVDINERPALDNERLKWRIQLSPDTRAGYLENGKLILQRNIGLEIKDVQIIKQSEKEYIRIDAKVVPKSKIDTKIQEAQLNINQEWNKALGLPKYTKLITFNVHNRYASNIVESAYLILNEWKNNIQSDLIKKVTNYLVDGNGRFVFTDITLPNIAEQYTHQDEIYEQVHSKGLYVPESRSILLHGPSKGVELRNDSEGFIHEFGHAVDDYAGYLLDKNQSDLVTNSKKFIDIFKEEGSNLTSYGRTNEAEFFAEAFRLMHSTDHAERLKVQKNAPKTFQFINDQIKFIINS

With “7-methoxy-coumarin-4-acetyl (Mca)-Arg-Arg-Lys-Lys-Val-Tyr-Pro-Try-Pro-Met-Glu -2,4-dinitrophenol (DNP) -Thr-Ile-Ala”, the “Cleavage by LF” value at anthrax lethal factor [1] was “cleaved by LF after the first proline”.

On to `CC(=O)N[C@@H](CCCNC(=N)N)C(=O)N[C@@H](CCCNC(=N)N)C(=O)N[C@@H](CCCCN)C(=O)N[C@@H](CCCCN)C(=O)N[C@H](C(=O)N[C@@H](Cc1ccc(O)cc1)C(=O)N1CCC[C@H]1C(=O)Nc1ccc2c(C)cc(=O)oc2c1)C(C)C` [LBL 10079] (Ac-RRKKVYP-{AMC}), for which, at anthrax lethal factor [2], the “Cleavage by LF in 1:10 diluted bovine plasma (increase in fluorescence)” value is “does not correlate with the amount of LF”.

As to `CC(=O)N[C@H](CCCNC(=N)N)C(=O)N[C@H](CCCNC(=N)N)C(=O)N[C@H](CCCCN)C(=O)N[C@H](CCCCN)C(=O)N[C@H](C(=O)N[C@@H](Cc1ccc(O)cc1)C(=O)N1CCC[C@H]1C(=O)Nc1ccc2c(C)cc(=O)oc2c1)C(C)C` [LBL 10097] (Ac-[dR][dR][dK][dK]VYP-{AMC}), the “Cleavage by LF in 1:10 diluted bovine plasma (increase in fluorescence)” value at anthrax lethal factor [2] was “dependent upon the presence and amount of LF”.

Regarding `CC(=O)N[C@H](CCCCN)C(=O)N[C@H](CCCCN)C(=O)N[C@H](C(=O)N[C@@H](Cc1ccc(O)cc1)C(=O)N1CCC[C@H]1C(=O)Nc1ccc2c(C)cc(=O)oc2c1)C(C)C` [LBL 10100] (Ac-[dK][dK]VYP-{AMC}), the “Cleavage by LF in assay buffer (increase in fluorescence)” value at anthrax lethal factor [3] was “eliminates hydrolysis at the concentrations of LF used”.

As to `CC(=O)N[C@@H](CCCNC(=N)N)C(=O)N[C@H](CCCNC(=N)N)C(=O)N[C@H](CCCCN)C(=O)N[C@H](CCCCN)C(=O)N[C@H](C(=O)N[C@@H](Cc1ccc(O)cc1)C(=O)N1CCC[C@H]1C(=O)Nc1ccc2c(C(F)(F)F)cc(=O)oc2c1)C(C)C` [LBL 10108] (Ac-R[dR][dK][dK]VYP-{AFC}), in the data set with plasma proteases, the “Non-specific cleavage in plasma in the absence of LF” value is reported as “neither peptide is cleaved in plasma in the absence of LF”.
